In ChEMBL document CHEMBL1138823, “Diaminopyrimidine and diaminopyridine 5-HT7 ligands” (Bioorg Med Chem Lett, 2004) one finds Ki data, which are given here for 25 compounds.

For one experiment, the target named is D(2) dopamine receptor (Homo sapiens, UniProt P14416). Description: Binding affinity against D2L receptor.
The target in experiment [1] is 5-hydroxytryptamine receptor 7 (Homo sapiens, UniProt P34969). The experiment can be described thus: Binding affinity against 5-Hydroxy tryptamine 7 receptor.
Chain of 5-hydroxytryptamine receptor 7 (P34969 whole entry): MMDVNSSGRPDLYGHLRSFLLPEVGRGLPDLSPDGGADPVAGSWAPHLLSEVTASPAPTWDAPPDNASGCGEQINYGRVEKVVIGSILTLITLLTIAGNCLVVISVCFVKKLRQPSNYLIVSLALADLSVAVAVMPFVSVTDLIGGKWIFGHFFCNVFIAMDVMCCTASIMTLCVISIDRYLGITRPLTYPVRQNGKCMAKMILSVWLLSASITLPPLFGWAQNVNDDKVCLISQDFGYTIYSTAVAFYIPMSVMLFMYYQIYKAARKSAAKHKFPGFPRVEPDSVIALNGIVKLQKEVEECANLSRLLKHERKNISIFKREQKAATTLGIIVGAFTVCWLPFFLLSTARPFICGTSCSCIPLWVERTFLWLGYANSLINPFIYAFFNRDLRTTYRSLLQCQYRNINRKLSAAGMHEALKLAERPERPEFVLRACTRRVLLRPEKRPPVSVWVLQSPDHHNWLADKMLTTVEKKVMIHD
The target of experiment [2] is 5-hydroxytryptamine receptor 2C (Rattus norvegicus) (UniProt P08909). The experiment can be described thus: Binding affinity against 5-Hydroxy tryptamine 2C receptor.
Chain of 5-hydroxytryptamine receptor 2C (Rattus norvegicus) (P08909 whole entry, looked up): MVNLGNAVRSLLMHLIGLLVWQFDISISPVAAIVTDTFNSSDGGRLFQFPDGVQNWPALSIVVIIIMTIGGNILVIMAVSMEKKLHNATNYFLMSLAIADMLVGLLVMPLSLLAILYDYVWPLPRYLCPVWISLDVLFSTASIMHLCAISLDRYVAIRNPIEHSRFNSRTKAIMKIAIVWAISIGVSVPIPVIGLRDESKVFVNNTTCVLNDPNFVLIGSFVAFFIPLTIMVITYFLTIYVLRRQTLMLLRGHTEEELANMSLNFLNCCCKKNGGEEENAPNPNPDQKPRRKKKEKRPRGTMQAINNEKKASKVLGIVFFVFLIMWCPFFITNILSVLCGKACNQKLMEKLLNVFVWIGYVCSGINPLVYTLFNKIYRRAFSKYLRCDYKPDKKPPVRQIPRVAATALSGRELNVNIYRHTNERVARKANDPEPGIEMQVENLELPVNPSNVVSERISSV
The target of experiment [3] is Adrenergic receptor alpha-1 (Rattus norvegicus). Description: Binding affinity against Alpha1 adrenergic receptor.

Chain of D(2) dopamine receptor (P14416 whole entry): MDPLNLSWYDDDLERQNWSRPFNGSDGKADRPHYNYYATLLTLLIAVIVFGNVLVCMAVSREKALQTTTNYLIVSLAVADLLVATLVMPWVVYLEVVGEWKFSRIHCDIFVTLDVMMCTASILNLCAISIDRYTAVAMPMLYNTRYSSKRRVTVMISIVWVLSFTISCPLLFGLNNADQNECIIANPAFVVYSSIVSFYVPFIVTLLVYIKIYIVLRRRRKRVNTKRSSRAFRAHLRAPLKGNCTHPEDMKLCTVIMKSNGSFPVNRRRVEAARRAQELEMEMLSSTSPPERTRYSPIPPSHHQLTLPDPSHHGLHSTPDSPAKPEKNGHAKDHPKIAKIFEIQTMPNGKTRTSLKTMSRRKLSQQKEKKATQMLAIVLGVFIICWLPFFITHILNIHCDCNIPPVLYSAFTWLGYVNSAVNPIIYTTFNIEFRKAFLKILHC

Take `C[C@H](Nc1ccnc(NCCOc2ccc(F)cc2)n1)c1ccccc1`: the Ki (usually the equilibrium dissociation constant of an inhibitor or competing ligand from its target) on D(2) dopamine receptor is greater than 1000 nM; in experiment [1] it was 0.3 nM.

`C[C@H](Nc1cc(NCCOc2ccc(F)cc2)ccn1)c1ccccc1`: the Ki is 13 nM in experiment [2], greater than 1000 nM at D(2) dopamine receptor and 0.4 nM in experiment [1].

Compound `CC(Nc1ccnc(NCCc2ccc(F)cc2)n1)c1ccccc1` (racemic) came in with a Ki in experiment [1] of 6 nM. This counts as single-digit nanomolar.

Take `C[C@H](Nc1cc(NCCc2ccccc2)ncn1)c1ccccc1`: in experiment [1], affinity was put at a Ki of 33 nM.

Compound `C[C@H](Nc1ccnc(NCCc2ccccc2)n1)c1ccccc1` showed a Ki in experiment [1] of 0.6 nM. Compared with the last compound, the Ki is about 55-fold lower.

`C[C@H](Nc1ccnc(NCCc2ccc(F)cc2)c1)c1ccccc1`: the Ki in experiment [1] was determined as 0.4 nM.

Take `C[C@H](Nc1cc(NCCc2ccc(F)cc2)ccn1)c1ccccc1`: the inhibitory constant (Ki) in experiment [1] worked out at 4 nM.

In experiment [1], `C[C@H](Nc1cncc(NCCc2ccc(F)cc2)c1)c1ccccc1` had a Ki of 16 nM.

As for `C[C@H](Nc1ccnc(NCCOc2ccccc2)c1)c1ccccc1`, the Ki in experiment [1] amounted to 0.4 nM.

Take `C[C@H](Nc1ccnc(NCCOc2ccccc2)n1)c1ccccc1`: the affinity in experiment [1], expressed as Ki, was 2 nM.

In experiment [1], `C[C@H](Nc1cc(NCCOc2ccc(F)cc2)ncn1)c1ccccc1` registered a Ki of 5 nM. Against the preceding compound, the Ki is about 2.5-fold higher.

Consider `C[C@H](Nc1cccc(NCCc2ccccc2)n1)c1ccccc1`, for which the Ki in experiment [1] is greater than 1000 nM.

Regarding `C[C@H](Nc1cccc(NCCOc2ccccc2)n1)c1ccccc1`, the Ki in experiment [1] is greater than 1000 nM.

As to `C[C@H](Nc1cc(NCCc2ccc(F)cc2)ncn1)c1ccccc1`, affinity in experiment [1] was put at a Ki of 5 nM. This counts as single-digit nanomolar.

As to `C[C@H](Nc1cccc(NCCOc2ccccc2)c1)c1ccccc1`, the Ki in experiment [1] is greater than 1000 nM.

The compound `C[C@H](Nc1cncc(NCCOc2ccccc2)c1)c1ccccc1` displayed a Ki in experiment [1] of 4 nM.

As for `C[C@H](Nc1cncc(NCCOc2ccc(F)cc2)c1)c1ccccc1`, the Ki is 476 nM in experiment [2], greater than 1000 nM at D(2) dopamine receptor and 4 nM in experiment [1].

Consider `CC(Nc1nccc(NCCOc2ccc(F)cc2)n1)c1ccccc1` (racemic), for which the Ki was 40 nM in experiment [2], greater than 1000 nM at D(2) dopamine receptor, 57 nM in experiment [3] and 1 nM in experiment [1].

Take `C[C@H](Nc1ccnc(NCCOc2ccc(F)cc2)c1)c1ccccc1`: the Ki was found to be 15 nM in experiment [2], 370 nM at D(2) dopamine receptor and 0.2 nM in experiment [1].

On to `CC(Nc1nccc(NCCc2ccccc2)n1)c1ccccc1` (racemic), for which the Ki in experiment [1] is 6 nM.

Take `C[C@H](Nc1cccc(NCCc2ccccc2)c1)c1ccccc1`: the Ki in experiment [1] is greater than 1000 nM.

Consider `C[C@H](Nc1cc(NCCOc2ccccc2)ccn1)c1ccccc1`, for which the affinity in experiment [1] corresponds to a Ki of 0.4 nM.

In experiment [1], `C[C@H](Nc1ccnc(NCCc2ccccc2)c1)c1ccccc1` had a Ki of 0.3 nM.

The compound `C[C@H](Nc1cc(NCCc2ccccc2)ccn1)c1ccccc1` displayed a Ki in experiment [1] of 3 nM.

In experiment [1], `C[C@H](Nc1cncc(NCCc2ccccc2)c1)c1ccccc1` returned a Ki of 13 nM.
